Source: patent US20230102554A1 (GB002, INC., priority 2019, published 2023)

How the values were obtained:
[1] = molecular target: T1, Human PDGFRα, cytoplasmic domain (GST-PDGFRα) (Homo sapiens, UniProt P16234); assay: Human PDGFRα biochemical inhibition assay (off-chip Mobility Shift Assay)
T1 construct: made in house

[2] = molecular target: T2, Human PDGFRβ, cytoplasmic domain (GST-PDGFRβ) (Homo sapiens, UniProt P09619); assay: Human PDGFRβ biochemical inhibition assay (off-chip Mobility Shift Assay)
T2 construct: made in house
T2 sequence (P09619 with tags, fused parts or gaps): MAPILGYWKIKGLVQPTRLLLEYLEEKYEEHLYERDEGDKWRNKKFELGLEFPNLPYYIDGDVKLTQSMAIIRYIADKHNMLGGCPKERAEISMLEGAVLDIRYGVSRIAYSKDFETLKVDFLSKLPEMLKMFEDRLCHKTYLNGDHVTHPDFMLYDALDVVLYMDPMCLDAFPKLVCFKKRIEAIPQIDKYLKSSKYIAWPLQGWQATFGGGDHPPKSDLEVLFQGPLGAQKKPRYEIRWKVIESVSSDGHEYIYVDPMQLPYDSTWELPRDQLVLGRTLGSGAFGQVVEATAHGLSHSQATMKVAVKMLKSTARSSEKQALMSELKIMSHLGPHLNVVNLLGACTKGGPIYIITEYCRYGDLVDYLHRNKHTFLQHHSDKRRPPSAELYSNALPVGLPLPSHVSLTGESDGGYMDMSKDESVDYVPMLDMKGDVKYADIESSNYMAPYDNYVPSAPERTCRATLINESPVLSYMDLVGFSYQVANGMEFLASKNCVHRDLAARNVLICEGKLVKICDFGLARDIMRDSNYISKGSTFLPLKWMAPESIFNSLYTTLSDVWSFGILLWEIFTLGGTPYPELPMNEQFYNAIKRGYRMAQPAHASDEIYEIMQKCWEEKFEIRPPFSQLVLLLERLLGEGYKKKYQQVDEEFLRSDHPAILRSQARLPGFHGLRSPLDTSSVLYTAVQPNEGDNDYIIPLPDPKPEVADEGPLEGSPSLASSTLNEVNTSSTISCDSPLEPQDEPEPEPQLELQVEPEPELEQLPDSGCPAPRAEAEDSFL
In short: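 GST-tagged cytoplasmic domain (aa 557-1106) from baculovirus was incubated 1 h at room temperature with compound, CSKtide, ATP at Km and Mg²⁺ in HEPES buffer, pH 7.5. Phosphorylated and unphosphorylated peptide were separated by off-chip mobility shift, and the product ratio P/(P+S) gave percent inhibition.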

T1 sequence (P16234 550-1089 T674I): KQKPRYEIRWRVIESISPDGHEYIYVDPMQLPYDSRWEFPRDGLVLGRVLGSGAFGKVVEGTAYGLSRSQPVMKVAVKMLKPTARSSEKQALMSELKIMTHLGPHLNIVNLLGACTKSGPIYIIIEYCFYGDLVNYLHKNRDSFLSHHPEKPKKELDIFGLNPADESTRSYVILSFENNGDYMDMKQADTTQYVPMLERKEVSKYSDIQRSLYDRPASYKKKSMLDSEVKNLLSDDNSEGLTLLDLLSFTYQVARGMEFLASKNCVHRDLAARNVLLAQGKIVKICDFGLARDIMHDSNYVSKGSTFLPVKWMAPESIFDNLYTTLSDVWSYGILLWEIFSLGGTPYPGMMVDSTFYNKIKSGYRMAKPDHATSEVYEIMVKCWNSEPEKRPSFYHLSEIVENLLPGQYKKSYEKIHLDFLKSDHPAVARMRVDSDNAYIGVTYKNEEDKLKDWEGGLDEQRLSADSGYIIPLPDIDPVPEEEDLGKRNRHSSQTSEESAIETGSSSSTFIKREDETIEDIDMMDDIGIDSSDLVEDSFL

SMILES	IC50 [1] [nM]	IC50 [2] [nM]
CCn1cc2ncc(N[C@@H](C)c3cc(NC(=O)c4cnc(N5CCCC5)c(C)c4)ccc3F)nc2n1 [Compound 336, (S)-N-(3-(1-((2-ethyl-2H-pyrazolo[3,4-b]pyrazin-6-yl)amino)ethyl)-4-fluorophenyl)-5-methyl-6-(pyrrolidin-1-yl) nicotinamide]	< 300	< 300
CCn1cc2ncc(N[C@@H](C)c3cc(NC(=O)c4ccc(NC)nc4)ccc3F)nc2n1 [Compound 337, (S)-N-(3-(1-((2-ethyl-2H-pyrazolo[3,4-b]pyrazin-6-yl)amino)ethyl)-4-fluorophenyl)-6-(methylamino)nicotinamide]	< 300	< 300
CCn1cc2ncc(N[C@@H](C)c3cccc(NC(=O)c4cnc(COC)s4)c3)nc2n1 [Compound 338, (S)-N-(3-(1-((2-ethyl-2H-pyrazolo[3,4-b]pyrazin-6-yl)amino)ethyl)phenyl)-2-(methoxymethyl)thiazole-5-carboxamide]	< 300	300 to 1000
CCn1cc2ncc(N[C@@H](C)c3cccc(NC(=O)c4cnc(N5CCOCC5)s4)c3)nc2n1 [Compound 339, (S)-N-(3-(1-((2-ethyl-2H-pyrazolo[3,4-b]pyrazin-6-yl)amino)ethyl)phenyl)-2-morpholinothiazole-5-carboxamide]	< 300	300 to 1000
CCn1cc2ncc(N[C@@H](C)c3cccc(NC(=O)c4cnc(N(C)C)s4)c3)nc2n1 [Compound 340, (S)-2-(dimethylamino)-N-(3-(1-((2-ethyl-2H-pyrazolo[3,4-b]pyrazin-6-yl)amino)ethyl)phenyl)thiazole-5-carboxamide]	< 300	< 300
CCc1ncc(C(=O)Nc2cccc([C@H](C)Nc3cnc4cn(CC)nc4n3)c2)s1 [Compound 341, (S)-2-ethyl-N-(3-(1-((2-ethyl-2H-pyrazolo[3,4-b]pyrazin-6-yl)amino)ethyl)phenyl)thiazole-5-carboxamide]	< 300	< 300
CCn1cc2ncc(N[C@@H](C)c3cccc(NC(=O)c4cnc(-c5cnn(C)c5)s4)c3)nc2n1 [Compound 342, (S)-N-(3-(1-((2-ethyl-2H-pyrazolo[3,4-b]pyrazin-6-yl)amino)ethyl)phenyl)-2-(1-methyl-1H-pyrazol-4-yl) thiazole-5-carboxamide]	300 to 1000	≥ 1000
CCn1cc2ncc(N[C@@H](C)c3cccc(NC(=O)c4ccc(F)c(Cl)c4)c3)nc2n1 [Compound 343, (S)-3-chloro-N-(3-(1-((2-ethyl-2H-pyrazolo[3,4-b]pyrazin-6-yl)amino)ethyl)phenyl)-4-fluorobenzamide]	< 300	< 300
CCn1cc2ncc(N[C@@H](C)c3cccc(NC(=O)c4ccc(C)c(F)c4)c3)nc2n1 [Compound 344, (S)-N-(3-(1-((2-ethyl-2H-pyrazolo[3,4-b]pyrazin-6-yl)amino)ethyl)phenyl)-3-fluoro-4-methylbenzamide]	< 300	< 300
CCn1cc2ncc(N[C@@H](C)c3cccc(NC(=O)c4ccc(Cl)c(C)c4)c3)nc2n1 [Compound 345, (S)-4-chloro-N-(3-(1-((2-ethyl-2H-pyrazolo[3,4-b]pyrazin-6-yl)amino)ethyl)phenyl)-3-methylbenzamide]	< 300	< 300
CCn1cc2ncc(N[C@@H](C)c3cccc(NC(=O)c4ccc(C#N)cc4)c3)nc2n1 [Compound 346, (S)-4-cyano-N-(3-(1-((2-ethyl-2H-pyrazolo[3,4-b]pyrazin-6-yl)amino)ethyl)phenyl)benzamide]	300 to 1000	300 to 1000
CCn1cc2ncc(N[C@@H](C)c3cccc(NC(=O)c4ccc(Cl)c(F)c4)c3)nc2n1 [Compound 347, (S)-4-chloro-N-(3-(1-((2-ethyl-2H-pyrazolo[3,4-b]pyrazin-6-yl)amino)ethyl)phenyl)-3-fluorobenzamide]	< 300	< 300
CCn1cc2ncc(N[C@@H](C)c3cccc(NC(=O)c4cnc(N(C)C)c(C)c4)c3)nc2n1 [Compound 348, (S)-6-(dimethylamino)-N-(3-(1-((2-ethyl-2H-pyrazolo[3,4-b]pyrazin-6-yl)amino)ethyl)phenyl)-5-methylnicotinamide]	< 300	< 300
CCn1cc2ncc(N[C@@H](C)c3cccc(NC(=O)c4cnc(C(C)C)s4)c3)nc2n1 [Compound 349, (S)-N-(3-(1-((2-ethyl-2H-pyrazolo[3,4-b]pyrazin-6-yl)amino)ethyl)phenyl)-2-isopropylthiazole-5-carboxamide]	< 300	< 300
CCn1cc2ncc(N[C@@H](C)c3cccc(NC(=O)c4cnc(Br)c(C)c4)c3)nc2n1 [Compound 350, (S)-6-bromo-N-(3-(1-((2-ethyl-2H-pyrazolo[3,4-b]pyrazin-6-yl)amino)ethyl)phenyl)-5-methylnicotinamide]	< 300	< 300
CCn1cc2ncc(N[C@@H](C)c3cccc(NC(=O)c4cnc(NC5CCOCC5)c(C)c4)c3)nc2n1 [Compound 351, (S)-N-(3-(1-((2-ethyl-2H-pyrazolo[3,4-b]pyrazin-6-yl)amino)ethyl)phenyl)-5-methyl-6-((tetrahydro-2H-pyran-4-yl)amino)nicotinamide]	300 to 1000	≥ 1000

SMILES	IC50 [1] [nM]	IC50 [2] [nM]
CCn1cc2ncc(N[C@@H](C)c3cccc(NC(=O)c4cnc(NC5CC5)c(C)c4)c3)nc2n1 [Compound 352, (S)-6-(cyclopropylamino)-N-(3-(1-((2-ethyl-2H-pyrazolo[3,4-b]pyrazin-6-yl)amino)ethyl)phenyl)-5-methylnicotinamide]	< 300	300 to 1000
CCn1cc2ncc(N[C@@H](C)c3cccc(NC(=O)c4cnc(C(F)F)c(C)c4)c3)nc2n1 [Compound 353]	< 300	< 300
CCn1cc2ncc(N[C@@H](C)c3cccc(NC(=O)c4cnc(OC(C)C)c(Cl)c4)c3)nc2n1 [Compound 354, (S)-5-chloro-N-(3-(1-((2-ethyl-2H-pyrazolo[3,4-b]pyrazin-6-yl)amino)ethyl)phenyl)-6-isopropoxynicotinamide]	< 300	< 300
CCn1cc2ncc(N[C@@H](C)c3cccc(NC(=O)c4cncc(F)c4)c3)nc2n1 [Compound 355, (S)-N-(3-(1-((2-ethyl-2H-pyrazolo[3,4-b]pyrazin-6-yl)amino)ethyl)phenyl)-5-fluoronicotinamide]	300 to 1000	≥ 1000
CCn1cc2ncc(N[C@@H](C)c3cccc(NC(=O)c4cnc(OC)c(Cl)c4)c3)nc2n1 [Compound 356, (S)-5-chloro-N-(3-(1-((2-ethyl-2H-pyrazolo[3,4-b]pyrazin-6-yl)amino)ethyl)phenyl)-6-methoxynicotinamide]	< 300	< 300
CCn1cc2ncc(N[C@@H](C)c3cccc(NC(=O)c4cc(Cl)c(Cl)s4)c3)nc2n1 [Compound 357, (S)-4,5-dichloro-N-(3-(1-((2-ethyl-2H-pyrazolo[3,4-b]pyrazin-6-yl)amino)ethyl)phenyl)thiophene-2-carboxamide]	< 300	< 300
CCn1cc2ncc(N[C@@H](C)c3cccc(NC(=O)c4cnc(N5CCOCC5)c(C)c4)c3)nc2n1 [Compound 358, (S)-N-(3-(1-((2-ethyl-2H-pyrazolo[3,4-b]pyrazin-6-yl)amino)ethyl)phenyl)-5-methyl-6-morpholinonicotinamide]	< 300	< 300
CCn1cc2ncc(N[C@@H](C)c3cccc(NC(=O)c4ccc(OC)c(F)c4)c3)nc2n1 [Compound 359, (S)-N-(3-(1-((2-ethyl-2H-pyrazolo[3,4-b]pyrazin-6-yl)amino)ethyl)phenyl)-3-fluoro-4-methoxybenzamide]	< 300	< 300
CCn1cc2ncc(N[C@@H](C)c3cccc(NC(=O)c4ccc(N5CCOCC5)c(Cl)c4)c3)nc2n1 [Compound 360, (S)-3-chloro-N-(3-(1-((2-ethyl-2H-pyrazolo[3,4-b]pyrazin-6-yl)amino)ethyl)phenyl)-4-morpholinobenzamide]	< 300	< 300
CCn1cc2ncc(N[C@@H](C)c3cccc(NC(=O)c4ccc(N5CCN(C)CC5)c(Cl)c4)c3)nc2n1 [Compound 361, (S)-3-chloro-N-(3-(1-((2-ethyl-2H-pyrazolo[3,4-b]pyrazin-6-yl)amino)ethyl)phenyl)-4-(4-methylpiperazin-1-yl)benzamide]	< 300	300 to 1000
CCOc1ncc(C(=O)Nc2cccc([C@H](C)Nc3cnc4cn(CC)nc4n3)c2)s1 [Compound 362, (S)-2-ethoxy-N-(3-(1-((2-ethyl-2H-pyrazolo[3,4-b]pyrazin-6-yl)amino)ethyl)phenyl)thiazole-5-carboxamide]	< 300	300 to 1000
CCn1cc2ncc(N[C@@H](C)c3cccc(NC(=O)c4cnc(CO)s4)c3)nc2n1 [Compound 363, (S)-N-(3-(1-((2-ethyl-2H-pyrazolo[3,4-b]pyrazin-6-yl)amino)ethyl)phenyl)-2-(hydroxymethyl)thiazole-5-carboxamide]	≥ 1000	≥ 1000
CCNc1ncc(C(=O)Nc2cccc([C@H](C)Nc3cnc4cn(CC)nc4n3)c2)s1 [Compound 364, (S)-N-(3-(1-((2-ethyl-2H-pyrazolo[3,4-b]pyrazin-6-yl)amino)ethyl)phenyl)-2-(ethylamino)thiazole-5-carboxamide]	< 300	300 to 1000
CCn1cc2ncc(N[C@@H](C)c3cccc(NC(=O)c4cnc(C(N)=O)s4)c3)nc2n1 [Compound 365, (S)-N5-(3-(1-((2-ethyl-2H-pyrazolo[3,4-b]pyrazin-6-yl)amino)ethyl)phenyl)thiazole-2,5-dicarboxamide]	< 300	< 300
CCn1cc2ncc(N[C@@H](C)c3cccc(NC(=O)c4ccc(N5CCOCC5)c(F)c4)c3)nc2n1 [Compound 366, (S)-N-(3-(1-((2-ethyl-2H-pyrazolo[3,4-b]pyrazin-6-yl)amino)ethyl)phenyl)-3-fluoro-4-morpholinobenzamide]	< 300	< 300
